Experimental data published in patent US20130252831A1, “METHOD OF DIAGNOSING EARLY STAGE NON-SMALL CELL LUNG CANCER” (H. Lee Moffitt Cancer Center and Research Institute, Inc., priority 2010, published 2013).

What was measured:
A489 cell line = test: MR score in cisplatin treated versus control cells, Almeida et al. dataset GSE6410; format: cell-based; conditions: p=0.08
Text: The inventors have identified 10 published datasets describing drug sensitivity in cell lines. Three of them have been analyzed to show the potential of the MR signature for its association with drug sensitivity. […] A high MR score tends to be associated with low GI50 (sensitivity) in both drugs. In addition, in the Almeida et al.'s study (GSE6410), the MR score was lower in the cisplatin treated group than in the control group in A489 cell line (FIG. 20c).
Thousands and thousands of gene expression array data have been deposited at various public repositories, such as NCBI's Gene Expression Omnibus and EBI's ArrayExpress with more than 600,000 array data for each site (updated in October 2011; 100,000 more since January 2011). The broad and unrestricted microarray data have made in-silico validation of hypotheses accessible and feasible. For this invention, more than 1,000 microarray datasets have potential for performing in-silico validation (e.g., data related to the keyword “non-small cell lung cancer cell line” at GEO). First, appropriate datasets are identified for validation by reading the […] (at least abstract and experimental design). At this moment, more than 10 potential useful datasets have been identified. […] Molecular cancer therapeutics, 2008, 7(7); p. […]

EGFR-mutant NSCLC = conditions: randomized phase III trial (Zhou et al.); cited from earlier work

| Structure (SMILES) | MR score in treated group versus control group (A489 cell line) | efficacy compared with platinum-based chemotherapy (EGFR-mutant NSCLC) |
| --- | --- | --- |
| N.N.[Cl][Pt][Cl] [Cisplatin] | lower |  |
| C#Cc1cccc(Nc2ncnc3cc(OCCOC)c(OCCOC)cc23)c1 [erlotinib] |  | superior to platinum-based chemotherapy |
